From patent publication US20090227025A1, “Ex vivo human lung/immune system model using tissue engineering for studying microbial pathogens with lung tropism” (priority 2003, published 2009) come the findings set out here.

Several values for one entry are separate records, joined by “and”; a condition that tells them apart may be missing. Identical values can stand only once.

The subject of assay [1] is influenza A virus A/Marton/43 (H1N1). Format: cell-based.
The subject of assay [2] is influenza A virus. Format: cell-based.

`CC(=O)N[C@H]1[C@H]([C@H](O)[C@H](O)CO)OC(C(=O)O)=C[C@@H]1NC(=N)N` [Neuraminidase inhibitor, 4-guanidino-2,4-dideoxy-2,3-dehydro-N-acetylneuraminic acid]: the average virus titer in assay [1] was 4.93 × 10^5 and 2.7 × 10^5. Moreover, the “virus localisation in treated TE cultures (staining, FIGS. 12A-F)” value in assay [2] is given as “accumulation of clumped virus”.
